# Experimental data as given in ChEMBL document CHEMBL2440076, “New triarylpyrazoles as broad-spectrum anticancer agents: design, synthesis, and biological evaluation” (Eur J Med Chem, 2013).
# How the values were obtained:
# [1] = tested on: MDA-MB-231; test: Growth inhibition of human MDA-MB-231 cells assessed as cell growth at 10 uM after 48 hrs by sulforhodamine B assay; assay type: functional; settings: MDA-MB-231, 48 h, read-out: Activity
# [2] = tested on: A498; test: Growth inhibition of human A498 cells assessed as cell growth at 10 uM after 48 hrs by sulforhodamine B assay; assay type: functional; settings: A498, 48 h, read-out: Activity
# [3] = tested on: MCF7; test: Growth inhibition of human MCF7 cells assessed as cell growth at 10 uM after 48 hrs by sulforhodamine B assay; assay type: functional; settings: MCF7, 48 h, read-out: Activity
# [4] = tested on: HCT-116; test: Growth inhibition of human HCT116 cells assessed as cell growth at 10 uM after 48 hrs by sulforhodamine B assay; assay type: functional; settings: HCT-116, 48 h, read-out: Activity
# [5] = tested on: CCRF-CEM; test: Growth inhibition of human CCRF-CEM cells assessed as cell growth at 10 uM after 48 hrs by sulforhodamine B assay; assay type: functional; settings: read-out: Activity
# [6] = tested on: SF-539; test: Growth inhibition of human SF539 cells after 48 hrs by sulforhodamine B assay; assay type: functional; settings: SF-539, 48 h
# [7] = tested on: ACHN; test: Growth inhibition of human ACHN cells after 48 hrs by sulforhodamine B assay; assay type: functional; settings: for CC50: read-out: LC50 (the source's name)
# [8] = tested on: KM12; test: Growth inhibition of human KM12 cells after 48 hrs by sulforhodamine B assay; assay type: functional, cell-based; settings: KM12, 48 h; for CC50: read-out: LC50 (the source's name)
# [9] = tested on: SR; test: Growth inhibition of human SR cells after 48 hrs by sulforhodamine B assay; assay type: functional; settings: for CC50: read-out: LC50 (the source's name)
# [10] = tested on: NCI-H460; test: Growth inhibition of human NCI-H460 cells after 48 hrs by sulforhodamine B assay; assay type: functional; settings: NCI-H460, 48 h
# [11] = tested on: BT-549; test: Growth inhibition of human BT549 cells after 48 hrs by sulforhodamine B assay; assay type: functional; settings: BT-549, 48 h
# [12] = tested on: T47D; test: Growth inhibition of human T47D cells after 48 hrs by sulforhodamine B assay; assay type: functional; settings: for CC50: read-out: LC50 (the source's name)
# [13] = tested on: COLO 205; test: Growth inhibition of human COLO205 cells after 48 hrs by sulforhodamine B assay; assay type: functional; settings: COLO 205, 48 h
Structure (SMILES),growth at 10 µM [1] [%],growth at 10 µM [2] [%],growth at 10 µM [3] [%],growth at 10 µM [4] [%],growth at 10 µM [5] [%],GI50 [6] [nM],TGI [6] [µM],GI50 [7] [nM],TGI [7] [µM],CC50 [7] [µM],GI50 [8] [nM],TGI [8] [µM],CC50 [8] [µM],GI50 [9] [nM],TGI [9] [µM],CC50 [9] [µM],GI50 [10] [nM],LC50 [10] [µM],TGI [10] [µM],GI50 [11] [nM],other results
COc1cc(-c2nn(-c3cccc(NC(=O)Nc4ccccc4)c3)cc2-c2ccncc2)ccc1Cl,88,79.7,88.8,87.2,83.3,,,,,,,,,,,,,,,,
COc1cc(-c2nn(-c3cccc(NC(=O)Nc4ccc(Cl)c(C(F)(F)F)c4)c3)cc2-c2ccncc2)ccc1Cl,-52.4,-6.71,0.14,5.3,-8.04,1650,6.34,1100,15.6,> 32.5,1060,3.92,14.9,884,2.48,> 32.5,1110,> 32.5,4.79,2360,LC50 (concentration killing 50% of cells) [6]: 17.5 µM; LC50 (50% lethal concentration) [11]: > 32.5 µM; TGI [11]: 10.2 µM; GI50 [12]: 1230 nM; TGI [12]: > 32.5 µM; CC50 [12]: > 32.5 µM; GI50 [13]: 711 nM; LC50 (concentration killing 50% of cells) [13]: 3.48 µM; TGI [13]: 1.54 µM
COc1cc(-c2nn(-c3cccc(NC(=O)c4ccccc4)c3)cc2-c2ccncc2)ccc1Cl,5.8,-23.2,4.67,8.58,2.06,387,2.88,754,> 100,> 100,556,> 100,> 100,250,> 100,> 100,394,> 100,> 100,1330,LC50 (concentration killing 50% of cells) [6]: > 100 µM; IC50 [8]: 560 nM; LC50 (50% lethal concentration) [11]: > 100 µM; TGI [11]: > 100 µM; GI50 [12]: 1900 nM; TGI [12]: > 100 µM; CC50 [12]: > 100 µM; GI50 [13]: 522 nM; LC50 (concentration killing 50% of cells) [13]: 68.4 µM; TGI [13]: 3.23 µM
COc1cc(-c2nn(-c3cccc(NC(=O)c4ccc(Br)c(C)c4)c3)cc2-c2ccncc2)ccc1Cl,67,68,75,70.3,74.6,,,,,,,,,,,,,,,,
COc1cc(-c2nn(-c3cccc(NC(=O)c4ccc(Cl)c(C(F)(F)F)c4)c3)cc2-c2ccncc2)ccc1Cl,25.8,11.8,37.6,24,12.4,4130,20.3,2730,> 32.5,> 32.5,2060,> 32.5,> 32.5,848,> 32.5,> 32.5,3470,> 32.5,> 32.5,7540,LC50 (concentration killing 50% of cells) [6]: > 32.5 µM; LC50 (50% lethal concentration) [11]: > 32.5 µM; TGI [11]: > 32.5 µM; GI50 [12]: 2050 nM; TGI [12]: > 32.5 µM; CC50 [12]: > 32.5 µM; GI50 [13]: 6140 nM; LC50 (concentration killing 50% of cells) [13]: > 32.5 µM; TGI [13]: 23.3 µM
COc1cc(-c2nn(-c3cccc(NC(=O)c4ccc(N5CCOCC5)c(C(F)(F)F)c4)c3)cc2-c2ccncc2)ccc1Cl,-25.2,-29.7,8.85,8.35,0.91,153,0.497,564,> 100,> 100,248,6.6,> 100,36.9,> 100,> 100,336,> 100,> 100,1410,IC50 [8]: 250 nM; LC50 (50% lethal concentration) [11]: > 100 µM; TGI [11]: > 100 µM; GI50 [12]: 686 nM; TGI [12]: > 100 µM; CC50 [12]: > 100 µM; GI50 [13]: 342 nM; LC50 (concentration killing 50% of cells) [13]: 4.15 µM; TGI [13]: 1.15 µM
O=C(Nc1cccc(-n2cc(-c3ccncc3)c(-c3ccc(Cl)c(O)c3)n2)c1)Nc1ccc(Cl)c(Cl)c1,-0.72,31.1,5.74,11.1,13.7,1340,8.97,1040,> 32.5,> 32.5,1010,4.47,26.3,1140,15,> 32.5,993,24.2,3.57,1700,LC50 (concentration killing 50% of cells) [6]: > 32.5 µM; LC50 (50% lethal concentration) [11]: > 32.5 µM; TGI [11]: 16.1 µM; GI50 [12]: 1550 nM; TGI [12]: 17.9 µM; CC50 [12]: > 32.5 µM; GI50 [13]: 3960 nM; LC50 (concentration killing 50% of cells) [13]: 22.7 µM; TGI [13]: 9.49 µM
O=C(Nc1cccc(-n2cc(-c3ccncc3)c(-c3ccc(Cl)c(O)c3)n2)c1)Nc1cccc(C(F)(F)F)c1,21.3,17.7,10.3,9.75,10.6,3540,11.6,1290,> 32.5,> 32.5,1330,> 32.5,> 32.5,1820,20,> 32.5,1180,> 32.5,29,6510,LC50 (concentration killing 50% of cells) [6]: > 32.5 µM; LC50 (50% lethal concentration) [11]: > 32.5 µM; TGI [11]: 21.4 µM; GI50 [12]: 2470 nM; TGI [12]: > 32.5 µM; CC50 [12]: > 32.5 µM; GI50 [13]: 7900 nM; LC50 (concentration killing 50% of cells) [13]: > 32.5 µM; TGI [13]: 23.8 µM
O=C(Nc1cccc(-n2cc(-c3ccncc3)c(-c3ccc(Cl)c(O)c3)n2)c1)Nc1ccc(Cl)c(C(F)(F)F)c1,-36.4,11.2,-16.6,-51,-13.8,782,2.39,913,> 32.5,> 32.5,1000,3.51,17.4,715,2.52,> 32.5,1010,> 32.5,4,1250,LC50 (concentration killing 50% of cells) [6]: > 32.5 µM; LC50 (50% lethal concentration) [11]: > 32.5 µM; TGI [11]: 8.07 µM; GI50 [12]: 1120 nM; TGI [12]: > 32.5 µM; CC50 [12]: > 32.5 µM; GI50 [13]: 2390 nM; LC50 (concentration killing 50% of cells) [13]: 16.1 µM; TGI [13]: 6.75 µM
O=C(Nc1cccc(-n2cc(-c3ccncc3)c(-c3ccc(Cl)c(O)c3)n2)c1)c1ccccc1,63.2,72.3,62.6,57.8,67.5,,,,,,,,,,,,,,,,
Cc1cc(C(=O)Nc2cccc(-n3cc(-c4ccncc4)c(-c4ccc(Cl)c(O)c4)n3)c2)ccc1Br,70,102,85.4,94.4,87.2,,,,,,,,,,,,,,,,
O=C(Nc1cccc(-n2cc(-c3ccncc3)c(-c3ccc(Cl)c(O)c3)n2)c1)c1ccc(Cl)c(C(F)(F)F)c1,73.5,105,93.9,100,98.8,,,,,,,,,,,,,,,,
